From PubChem BioAssay (NCI)
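Method: 48-hour compound exposure of cells in 96-well plates, five concentrations, linear interpolation of endpoints. At the TGI there is no net growth.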

Legend:
Assay in all cases: NCI anticancer screen, dose series, 48 h
KM12 colon = system: KM12 colon
HS 578T breast = system: HS 578T breast
PC-3 prostate = system: PC-3 prostate
UO-31 renal = system: UO-31 renal
HOP-92 NSCLC = system: HOP-92 NSCLC
786-0 renal = system: 786-0 renal
DU-145 prostate = system: DU-145 prostate
HCC-2998 colon = system: HCC-2998 colon
SR leukemia = system: SR leukemia
LOX IMVI melanoma = system: LOX IMVI melanoma
SK-OV-3 ovarian = system: SK-OV-3 ovarian
TK-10 renal = system: TK-10 renal
K-562 leukemia = system: K-562 leukemia
CCRF-CEM leukemia = system: CCRF-CEM leukemia
COLO 205 colon = system: COLO 205 colon
MCF7 breast = system: MCF7 breast
RPMI-8226 leukemia = system: RPMI-8226 leukemia
MDA-MB-435 = system: MDA-MB-435
OVCAR-3 ovarian = system: OVCAR-3 ovarian
NCI-H460 lung = system: NCI-H460 lung
OVCAR-8 ovarian = system: OVCAR-8 ovarian
A498 renal = system: A498 renal
UACC-257 melanoma = system: UACC-257 melanoma
SNB-75 CNS = system: SNB-75 CNS
OVCAR-5 ovarian = system: OVCAR-5 ovarian
NCI/ADR-RES ovarian = system: NCI/ADR-RES ovarian
MDA-N = system: MDA-N
M14 melanoma = system: M14 melanoma
NCI-H226 lung = system: NCI-H226 lung
SF-268 CNS = system: SF-268 CNS
NCI-H522 lung = system: NCI-H522 lung
HOP-62 NSCLC = system: HOP-62 NSCLC
SK-MEL-5 melanoma = system: SK-MEL-5 melanoma
SN12C renal = system: SN12C renal
UACC-62 melanoma = system: UACC-62 melanoma
EKVX NSCLC = system: EKVX NSCLC
SF-539 CNS = system: SF-539 CNS
BT-549 breast = system: BT-549 breast
HT29 colon = system: HT29 colon
MALME-3M melanoma = system: MALME-3M melanoma
SF-295 CNS = system: SF-295 CNS
SK-MEL-28 melanoma = system: SK-MEL-28 melanoma
A549 NSCLC = system: A549 NSCLC
SW-620 colon = system: SW-620 colon
MOLT-4 leukemia = system: MOLT-4 leukemia
U251 CNS = system: U251 CNS
ACHN renal = system: ACHN renal
HCT-116 colon = system: HCT-116 colon
MDA-MB-231 breast = system: MDA-MB-231 breast
SNB-19 CNS = system: SNB-19 CNS
T-47D breast = system: T-47D breast
HL-60(TB) leukemia = system: HL-60(TB) leukemia
NCI-H23 lung = system: NCI-H23 lung
SK-MEL-2 melanoma = system: SK-MEL-2 melanoma
RXF 393 renal = system: RXF 393 renal
IGROV1 ovarian = system: IGROV1 ovarian
OVCAR-4 ovarian = system: OVCAR-4 ovarian
HCT-15 colon = system: HCT-15 colon

## O=S(=O)(Cc1nc2ccccc2s1)c1nc2ccccc2s1
KM12 colon
  TGI: 35.4 µM
HS 578T breast
  TGI: 79.3 µM
PC-3 prostate
  TGI: 32.6 µM
UO-31 renal
  TGI: 31.4 µM
HOP-92 NSCLC
  TGI: 28.1 µM
786-0 renal
  TGI: 34.1 µM
DU-145 prostate
  TGI: 32 µM
HCC-2998 colon
  TGI: 30.2 µM
SR leukemia
  TGI: 21 µM
LOX IMVI melanoma
  TGI: 25.6 µM
SK-OV-3 ovarian
  TGI: > 100 µM
TK-10 renal
  TGI: 35.7 µM
K-562 leukemia
  TGI: 32.2 µM
CCRF-CEM leukemia
  TGI: 23.7 µM
COLO 205 colon
  TGI: 33.4 µM
MCF7 breast
  TGI: 37.1 µM
RPMI-8226 leukemia
  TGI: 37 µM
MDA-MB-435
  TGI: 34.4 µM
OVCAR-3 ovarian
  TGI: 28.1 µM
NCI-H460 lung
  TGI: > 100 µM
OVCAR-8 ovarian
  TGI: 55.7 µM
A498 renal
  TGI: 38.6 µM
UACC-257 melanoma
  TGI: 41.8 µM
SNB-75 CNS
  TGI: 41.3 µM
OVCAR-5 ovarian
  TGI: 39.4 µM
NCI/ADR-RES ovarian
  TGI: > 100 µM
MDA-N
  TGI: 39.5 µM
M14 melanoma
  TGI: 30.5 µM
NCI-H226 lung
  TGI: 65.6 µM
SF-268 CNS
  TGI: 42.2 µM
NCI-H522 lung
  TGI: 33.9 µM
HOP-62 NSCLC
  TGI: > 100 µM
SK-MEL-5 melanoma
  TGI: 25.6 µM
SN12C renal
  TGI: 35.2 µM
UACC-62 melanoma
  TGI: 44.2 µM
EKVX NSCLC
  TGI: 46.2 µM
SF-539 CNS
  TGI: 43.7 µM
BT-549 breast
  TGI: 34.1 µM
HT29 colon
  TGI: 37.5 µM
MALME-3M melanoma
  TGI: 24.9 µM
SF-295 CNS
  TGI: 64.2 µM
SK-MEL-28 melanoma
  TGI: 30.5 µM
A549 NSCLC
  TGI: 95 µM
SW-620 colon
  TGI: 34.6 µM
MOLT-4 leukemia
  TGI: 39.9 µM
U251 CNS
  TGI: 34.9 µM
ACHN renal
  TGI: 33 µM
HCT-116 colon
  TGI: 27 µM
MDA-MB-231 breast
  TGI: 34 µM
SNB-19 CNS
  TGI: 44 µM
T-47D breast
  TGI: 53.6 µM
HL-60(TB) leukemia
  TGI: 24.2 µM
NCI-H23 lung
  TGI: 38.9 µM
SK-MEL-2 melanoma
  TGI: 37.7 µM
RXF 393 renal
  TGI: 59.6 µM
IGROV1 ovarian
  TGI: 39.6 µM
OVCAR-4 ovarian
  TGI: 31.4 µM
HCT-15 colon
  TGI: 32 µM
